Some test systems named below: TK-10; SNB-75; SNB-19; HOP-92; OVCAR-4; 786-0; M14; SK-OV-3; T47D; K562; KM12; SW-620; SR; HCT-15; MDA-MB-231; MDA-MB-435; Hs-578T; SK-MEL-2; LOX IMVI; SF-295.
Test in all cases: DTP human tumour cell line panel, 48 h

Usually GI50 stands for the concentration that inhibits growth by half.

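A five-concentration, 48-hour dose response in 96-well plates underlies each endpoint, interpolated linearly between surrounding concentrations. At the GI50, growth is halved.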 The source made the active and inactive calls. Cut-off read from the data, not from the text of the source: active = GI50 up to about 1.1 µM and inactive = higher.

For `CN(C)c1ccc(C2ON=C(c3ccccc3)N2C23CC4CC(CC(C4)C2)C3)cc1` (configuration not stated), the GI50 in the assay with TK-10, in the assay with SNB-75, in the assay on SNB-19, in the assay on HOP-92, in the assay on OVCAR-4 and in the assay with 786-0 was > 10 µM (inactive) throughout. Besides, the GI50 is > 10 µM (inactive) in the assay with M14; > 10 µM (inactive) in the assay with SK-OV-3; > 10 µM (inactive) in the assay on T47D; 9.12 µM (inactive) in the assay on K562; > 10 µM (inactive) in the assay with KM12; > 10 µM (inactive) in the assay with SW-620. In addition, the GI50 in the assay with SR is 8.02 µM (inactive); in the assay on HCT-15, over 10 µM; in the assay with MDA-MB-231 it was > 10 µM (inactive); with MDA-MB-435 it was > 10 µM (inactive); with Hs-578T, > 10 µM (inactive); in the assay on SK-MEL-2 it was > 10 µM (inactive). In addition, the GI50 with LOX IMVI and in the assay on SF-295 was > 10 µM (inactive) in each case.

Turning to `Cc1nc2sc(CCl)nn2c(=O)c1Cl`, the GI50 was 12.5 µM (inactive) in the assay with TK-10; 10.9 µM (inactive) in the assay on SNB-75; 16.3 µM (inactive) in the assay on SNB-19; 5.7 µM (inactive) in the assay with HOP-92; 15.7 µM (inactive) with OVCAR-4; 10.6 µM (inactive) in the assay with 786-0. Moreover, the GI50 in the assay on M14 is 12.1 µM (inactive); in the assay on SK-OV-3 it was 14.6 µM (inactive); in the assay on T47D it was 13.1 µM (inactive); in the assay with K562 it was 12.1 µM (inactive); in the assay with KM12 it was 11.9 µM (inactive); in the assay with SW-620, 10.4 µM (inactive). The GI50 with SR was 4.61 µM (inactive); in the assay on HCT-15, 11.5 µM; in the assay with MDA-MB-231, 20.5 µM (inactive); with MDA-MB-435, 4.95 µM (inactive); in the assay with Hs-578T, 19.1 µM (inactive); in the assay with SK-MEL-2 it was 11.1 µM (inactive). The GI50 with LOX IMVI is 1.92 µM (inactive); in the assay with SF-295 it was 16.6 µM (inactive).

Consider `C/C(=C\c1ccccc1)C(=O)NCc1ccc(C(=O)NCCc2ccccc2)cc1`, for which the GI50 is 41.9 µM (inactive) in the assay on TK-10; 3.95 µM (inactive) with SNB-75; 9.42 µM (inactive) with SNB-19; 18.4 µM (inactive) in the assay on HOP-92; > 100 µM (inactive) in the assay on OVCAR-4; 20.6 µM (inactive) in the assay with 786-0. Also, the GI50 with M14 was > 100 µM (inactive); in the assay on SK-OV-3 it was 12.2 µM (inactive); with T47D, > 89.7 µM (inactive); in the assay with K562, > 100 µM (inactive); in the assay with KM12 it was > 100 µM (inactive); with SW-620, > 100 µM (inactive). For the same compound, the GI50 with SR was > 100 µM (inactive); in the assay on HCT-15, over 100 µM; in the assay on MDA-MB-231, > 43.2 µM (inactive); with MDA-MB-435 it was > 100 µM (inactive); in the assay with Hs-578T it was 7.16 µM (inactive); in the assay on SK-MEL-2, 20.9 µM (inactive). Also, the values for the GI50 with LOX IMVI and in the assay with SF-295 were > 100 µM (inactive) and 27.7 µM (inactive), respectively.

Take `C/C(=N\Nc1nc2ccccc2n1C)c1ccncn1`: the GI50 in the assay with TK-10 is 1.52 µM (inactive); in the assay with SNB-75, 1.87 µM (inactive); in the assay on SNB-19, 0.65 µM (active); in the assay on HOP-92, 0.129 µM (active); in the assay on OVCAR-4, 0.17 µM (active); with 786-0, 0.08 µM (active). The concentration for 50% growth inhibition (GI50) in the assay on M14 is 0.0408 µM (active); in the assay with SK-OV-3, 0.182 µM (active); with T47D, < 0.0501 µM (active); with K562, < 0.0152 µM (active); with KM12 it was 0.265 µM (active); with SW-620, < 0.018 µM (active). The GI50 with SR is 0.082 µM (active); with HCT-15 it was under 0.0186 µM; in the assay on MDA-MB-231, 0.0389 µM (active); with MDA-MB-435, 0.362 µM (active); with Hs-578T, 3.1 µM (inactive); in the assay on SK-MEL-2, 2.52 µM (inactive). The GI50 was 0.0845 µM (active) in the assay with LOX IMVI and 0.476 µM (active) in the assay with SF-295.

On to `Clc1ccc(-c2cn3c(nc4ccccc43)c(/C=C/c3cccs3)n2)cc1`, for which the GI50 was 86.1 µM (inactive) with TK-10; > 100 µM (inactive) with SNB-75; > 100 µM (inactive) in the assay with SNB-19; > 100 µM (inactive) with HOP-92; 34.7 µM (inactive) in the assay on OVCAR-4; > 100 µM (inactive) with 786-0. Also, the GI50 in the assay with M14 was > 100 µM (inactive); with SK-OV-3, > 100 µM (inactive); with T47D it was 27.3 µM (inactive); in the assay on K562, 49.1 µM (inactive); in the assay on KM12, 33.7 µM (inactive); in the assay with SW-620, > 100 µM (inactive). Besides, the GI50 is 5.09 µM (inactive) in the assay with SR; over 100 µM in the assay with HCT-15; 53.7 µM (inactive) in the assay with MDA-MB-231; 37.3 µM (inactive) in the assay on MDA-MB-435; 43.8 µM (inactive) with Hs-578T; 41.6 µM (inactive) in the assay on SK-MEL-2. Moreover, the GI50 with LOX IMVI is > 100 µM (inactive).

For `C=C(C(=O)O)[C@@H]1C[C@@H](OC(C)=O)[C@]2(C)CC/C=C(\C)CCC[C@H](C)[C@H](O)[C@@H]1O2`, the GI50 in the assay with TK-10 was 57.4 µM (inactive); in the assay with SNB-75, 74.8 µM (inactive); with HOP-92, 46 µM (inactive); in the assay on OVCAR-4, > 100 µM (inactive); in the assay with 786-0, 44.5 µM (inactive); in the assay on M14, 28.2 µM (inactive). The GI50 with SK-OV-3 was 34.5 µM (inactive); in the assay on T47D it was > 100 µM (inactive); in the assay on K562 it was 75.2 µM (inactive); with KM12, 41.9 µM (inactive); in the assay with SW-620, 40.1 µM (inactive); with SR it was 24.3 µM (inactive). Also, the concentration for 50% growth inhibition (GI50) in the assay on HCT-15 was 41.8 µM; with MDA-MB-231, > 100 µM (inactive); in the assay with MDA-MB-435, 24.2 µM (inactive); in the assay with Hs-578T it was 49.9 µM (inactive); with SK-MEL-2, 71.8 µM (inactive); with LOX IMVI, 30.3 µM (inactive). Moreover, the GI50 in the assay with SF-295 is 24.7 µM (inactive).

On to `O=C1O/C(=C\c2ccccc2)N(c2ccccc2)C1=O`, for which the GI50 in the assay with TK-10, with SNB-75, with SNB-19, with HOP-92, in the assay with OVCAR-4 and with 786-0 was > 100 µM (inactive) in each case. Moreover, the GI50 with M14, in the assay with SK-OV-3, in the assay with T47D, in the assay with K562, with KM12 and in the assay on SW-620 was > 100 µM (inactive) throughout. Moreover, the GI50 in the assay on SR was > 100 µM (inactive); in the assay with HCT-15, over 100 µM; in the assay with MDA-MB-231 it was > 100 µM (inactive); with MDA-MB-435, > 100 µM (inactive); in the assay on Hs-578T, > 100 µM (inactive); in the assay on SK-MEL-2 it was > 100 µM (inactive). Moreover, the GI50 in the assay on LOX IMVI was > 100 µM (inactive).

The values are drawn from ChEMBL document CHEMBL1201862, “PubChem BioAssay data set” (2004).
